# Laboratory results from US20220142958A1, “MEDICINAL COMPOSITION HAVING EXCELLENT STABILITY” (EA Pharma Co., Ltd., priority 2019, published 2022).
# Columns and labels:
# [1] = Example 1B: residual ratio of Compound A1 at 2 concentrations stored at 5° C.; format: physicochemical
# Protocol: According to Table 3 below, Compound A1 was dissolved in each of the buffer solutions at 2 concentrations. Each of these solutions was dispensed into a glass vial and stored at 5° C. After the storage, a residual ratio of Compound A1 was calculated according to a test method described below.
# (§1) Test method: In the solution after the storage, the residual ratio was analyzed according to a normal method using a liquid chromatography apparatus Prominence (manufactured by Shimadzu Corporation) and an ultraviolet absorptiometer (measurement wavelength: 254 nm, Prominence (manufactured by Shimadzu Corporation)). At this time, SUMIPAX ODS (3 mm×150 mm, 5 μm, manufactured by SCAS) was used as a column.
# The residual ratio (%) of Compound A1 during each storage period at 5° C. was calculated as follows.
# Residual ratio (%) of Compound A1 during each storage period=peak area of Compound A1 in sample solution/sum of peak area of sample solution×100
# [2] = Example 4A: residual ratio and reaction rate constant after storage at 60° C.; format: physicochemical; details: for Reaction rate constant at 60° C. / Residual ratio (%): 0.1 mg/mL
# Protocol: Compound A1 was dissolved in each of the buffer solutions shown in Table 10 so that a concentration was 0.1 mg/mL. Each of these solutions was dispensed into a glass vial and stored at 60° C. After the storage, a residual ratio was calculated according to a test method described below.
# as §1
# The calculation for obtaining the residual ratio (%) of Compound A1 during each storage period is as follows.
# Residual ratio (%) of Compound A1 during each storage period=peak area of Compound A1 in sample solution/peak area of Compound A1 in standard solution×100
# Here, “Compound A1 in standard solution” refers to a solution obtained by dissolving Compound A1 in each of the buffer solutions shown in Table 10 so that a concentration was 0.1 mg/mL, and then storing the solution at 5° C. It was clear from the results of Example 1 that the solution of Compound A1 was stable when being stored at 5° C., and thus, the solution was used as the standard solution.
# The reaction rate constant at 60° C. was calculated using the obtained residual ratio.
# serum iPTH concentration = test: Serum iPTH concentration in bilaterally nephrectomized rats after single intravenous administration; format: in vivo, rat
# Description: (§2) After quarantine and acclimatization periods of 6 days, fifty-one rats (Crl: CD (SD), male) aged 7 weeks were fed a 100% sucrose diet ad libitum from four days before the surgery. On the day of the surgery, skin incisions were made on the back at the sites of the right and left kidneys under isoflurane anesthesia and the renal capsules were removed to ligate the renal arteries and veins and the ureters using threads before removing the right and left kidneys. A penicillin solution was given upon suturing, and 5 mL of physiological saline was intraperitoneally administered before returning the rats into the breeding cages.
# On the day of administering the test substance, for example, a day after the bilaterally nephrectomy, approximately 100 μL of blood was collected from the tail vein without anesthesia using a capillary tube, which was centrifuged in a high speed refrigerated microcentrifuge (10,000 rpm, 5 min, 4° C.) to separate the serum. Thereafter, the serum Ca concentration was measured with a dri-chemanalyzer (model number: FUJI DRI-CHEM 7000, manufacturer: FUJI FILM Medical Co., Ltd.) to select individuals with a serum Ca concentration of 8.0 mg/dL or more and less than 14.0 mg/dL.
# (§3) On a day after the bilaterally nephrectomy, the given doses were calculated based on the weight of the selected animals on that day. Group 1 was given a medium (physiological saline), Groups 2, 3 and 4 were given the Compound A1 solution (0.3, 3 and 30 mg/mL, respectively), and Groups 5, 6, 7 and 8 (5 rats per group) were given the comparative compound (0.3, 1, 3 and 10 mg/mL, respectively), each given a single dose of 1 ml/kg from the tail vein. Prior to the administration (0 hours), and 24 and 48 hours after the administration, approximately 300 μL of blood was collected without anesthesia from the tail vein using capillary tubes for obtaining the serum. The blood for obtaining the serum was left to stand at room temperature, and centrifuged in a high speed refrigerated microcentrifuge (10,000 rpm, 5 min, 4° C.) within a period of 30 minutes to 2 hours after the blood collection to collect the serum.
# Thereafter, the serum Ca was analyzed with COBAS analyzer (Model number: COBAS INTEGRA 400 plus, manufacturer: Roche Diagnostics K.K.), and the remaining serum was stored in an ultra-low freezer (temperature set to −80±15° C.) until the day of iPTH measurement. On the day of iPTH measurement, the serum was melted at room temperature for measurement.
# A 30 mg/ml Compound A1 solution ([…] of Compound A1 dissolved in 10 ml of physiological saline) was diluted with physiological saline to prepare 0.3 mg/ml and […] Compound A1 solutions.
# 149 mg of etelcalcetide (Ac-c(C) arrrar-NH2) TFA salt (WO 2011/014707 A) was prepared to have pH of 6 to 8 with 7 ml of physiological saline and a 0.5N aqueous NaOH solution, and physiological saline was further added thereto to make 10 ml. The prepared 10 mg/ml comparative compound solution was diluted with physiological saline to obtain 0.3 mg/ml and 1 mg/ml comparative compound solutions.
# [3] = tested on: bilaterally nephrectomized rats; test: Survival of bilaterally nephrectomized rats after single doses; format: in vivo, rat; details: 48 hours after the administration, all administered groups (0.3, 3, 30 mg/kg)
# Description: as §2, §3
smiles,measurement,setting,value
"Cc1c(Cl)cc(S(=O)(=O)[O-])cc1NC(=O)NC[C@H](N)C(=O)O.[Na+] [Compound A1, sodium 3-{[(2S)-2-amino-2-carboxyethyl]carbamoylamino}-5-chloro-4-methylbenzenesulfonate]",Residual ratio (%),"[1]; 0.1 mg/mL, pH 1.1, 5° C., 23 hours",100%
same,Residual ratio (%),"[1]; 0.1 mg/mL, pH 1.1, 5° C., 141 hours",100%
same,Residual ratio (%),"[1]; 0.1 mg/mL, pH 1.1, 5° C., 570 hours",100%
same,Residual ratio (%),"[1]; 0.1 mg/mL, pH 7.0, 5° C., 23 hours",100%
same,Residual ratio (%),"[1]; 0.1 mg/mL, pH 7.0, 5° C., 141 hours",100%
same,Residual ratio (%),"[1]; 0.1 mg/mL, pH 7.0, 5° C., 570 hours",100%
same,Residual ratio (%),"[1]; 10 mg/mL, pH 1.1, 5° C., 23 hours",100%
same,Residual ratio (%),"[1]; 10 mg/mL, pH 1.1, 5° C., 141 hours",100%
same,Residual ratio (%),"[1]; 10 mg/mL, pH 1.1, 5° C., 570 hours",100%
same,Residual ratio (%),"[1]; 10 mg/mL, pH 7.0, 5° C., 23 hours",100%
same,Residual ratio (%),"[1]; 10 mg/mL, pH 7.0, 5° C., 141 hours",100%
same,Residual ratio (%),"[1]; 10 mg/mL, pH 7.0, 5° C., 570 hours",100%
same,stability of the formulation,"[1]; pH of 1.1 and pH of 7.0, 5° C., regardless of the concentration",stable
same,Reaction rate constant at 60° C.,[2]; pH 1.1,6.3 × 10^−4
same,Residual ratio (%),"[2]; pH 1.1, 60° C., 24 hours",97.8%
same,Residual ratio (%),"[2]; pH 1.1, 60° C., 113 hours",92.7%
same,Residual ratio (%),"[2]; pH 1.1, 60° C., 161 hours",90.2%
same,Reaction rate constant at 60° C.,[2]; pH 2.0,6.5 × 10^−4
same,Residual ratio (%),"[2]; pH 2.0, 60° C., 24 hours",98.1%
same,Residual ratio (%),"[2]; pH 2.0, 60° C., 113 hours",92.4%
same,Residual ratio (%),"[2]; pH 2.0, 60° C., 161 hours",90.1%
same,Reaction rate constant at 60° C.,[2]; pH 3.0,7.5 × 10^−4
same,Residual ratio (%),"[2]; pH 3.0, 60° C., 24 hours",98.3%
same,Residual ratio (%),"[2]; pH 3.0, 60° C., 113 hours",91.5%
same,Residual ratio (%),"[2]; pH 3.0, 60° C., 161 hours",88.9%
same,Reaction rate constant at 60° C.,[2]; pH 4.0,7.6 × 10^−4
same,Residual ratio (%),"[2]; pH 4.0, 60° C., 24 hours",98.1%
same,Residual ratio (%),"[2]; pH 4.0, 60° C., 113 hours",91.5%
same,Residual ratio (%),"[2]; pH 4.0, 60° C., 161 hours",88.5%
same,Reaction rate constant at 60° C.,[2]; pH 5.0,7.9 × 10^−4
same,Residual ratio (%),"[2]; pH 5.0, 60° C., 24 hours",98.0%
same,Residual ratio (%),"[2]; pH 5.0, 60° C., 113 hours",91.3%
same,Residual ratio (%),"[2]; pH 5.0, 60° C., 161 hours",88.0%
same,Reaction rate constant at 60° C.,[2]; pH 6.0,7.8 × 10^−4
same,Residual ratio (%),"[2]; pH 6.0, 60° C., 24 hours",98.1%
same,Residual ratio (%),"[2]; pH 6.0, 60° C., 113 hours",91.5%
same,Residual ratio (%),"[2]; pH 6.0, 60° C., 161 hours",88.3%
same,Reaction rate constant at 60° C.,[2]; pH 7.0,8.2 × 10^−4
same,Residual ratio (%),"[2]; pH 7.0, 60° C., 24 hours",98.2%
same,Residual ratio (%),"[2]; pH 7.0, 60° C., 113 hours",91.0%
same,Residual ratio (%),"[2]; pH 7.0, 60° C., 161 hours",87.8%
same,change of reaction rate constant at 60° C. when the pH of the formulation was changed,[2]; pH 1.1 to 7.0,not significantly changed
same,mean serum iPTH concentration,"serum iPTH concentration; 0.3 mg/kg single i.v., 24 hours after the administration",140 pg/mL
same,mean serum iPTH concentration,"serum iPTH concentration; 0.3 mg/kg single i.v., 48 hours after the administration",338 pg/mL
same,mean serum iPTH concentration,"serum iPTH concentration; 3 mg/kg single i.v., 24 hours after the administration",138 pg/mL
same,mean serum iPTH concentration,"serum iPTH concentration; 3 mg/kg single i.v., 48 hours after the administration",280 pg/mL
same,mean serum iPTH concentration,"serum iPTH concentration; 30 mg/kg single i.v., 24 hours after the administration",118 pg/mL
same,mean serum iPTH concentration,"serum iPTH concentration; 30 mg/kg single i.v., 48 hours after the administration",245 pg/mL
same,EC50,"serum iPTH concentration; Rattus norvegicus, iv, plasma concentration, rats, read-out: 50% effective concentration, EC50 value, for decreasing the serum iPTH concentration",0.075 µg/mL
same,lower limit value of the serum iPTH concentration (simulated),"serum iPTH concentration; logistic curve fitting, 48 hours after the administration vs given dose",203.0 pg/mL
same,decrease of serum iPTH and Ca concentrations,"serum iPTH concentration; renal failure rat models, during 48 hours after the administration, relation to dose",sufficiently decreased during the 48 hours after the administration but the decreases were gradual with respect to the increase in the dose
same,number of rats surviving (of five per group),[3],five
